How the values were obtained:
Type in all cases: biochemical
[1] = target: acetylcholinesterase (AChE) (Homo sapiens, UniProt P22303); test: biochemical
[2] = target: T1, BACE-1 (Homo sapiens, UniProt P56817); test: In vitro BACE-1 inhibitory FRET assay; conditions: 60 min at 25 °C, pH 4.5
T1 construct: purchased Pan Vera; host or cells: baculovirus-expressed

[3] = target: butyrylcholinesterase (BChE) (Homo sapiens, UniProt P06276); test: biochemical
[4] = target: T1, BACE-1; test: Kinetic study against BACE-1 (Lineweaver-Burk and Dixon plots); conditions: Dixon plot intercept
Description: The kinetics assays were conducted according to the manufacturer’s instructions similarly to the inhibitory assay except that change in fluorescence over time was monitored at 590 nm without the addition of the stop solution. Each substrate (0.15, 0.30, 0.45 µM) and compound (0, 4, 8 and 16 µM) concentration pair were prepared in triplicate and analyzed. The Lineweaver Burk and Dixon plots were plotted as described in Section 3.7.1.

[5] = mean ± SD, three independent experiments

T1 sequence (P56817 46-501): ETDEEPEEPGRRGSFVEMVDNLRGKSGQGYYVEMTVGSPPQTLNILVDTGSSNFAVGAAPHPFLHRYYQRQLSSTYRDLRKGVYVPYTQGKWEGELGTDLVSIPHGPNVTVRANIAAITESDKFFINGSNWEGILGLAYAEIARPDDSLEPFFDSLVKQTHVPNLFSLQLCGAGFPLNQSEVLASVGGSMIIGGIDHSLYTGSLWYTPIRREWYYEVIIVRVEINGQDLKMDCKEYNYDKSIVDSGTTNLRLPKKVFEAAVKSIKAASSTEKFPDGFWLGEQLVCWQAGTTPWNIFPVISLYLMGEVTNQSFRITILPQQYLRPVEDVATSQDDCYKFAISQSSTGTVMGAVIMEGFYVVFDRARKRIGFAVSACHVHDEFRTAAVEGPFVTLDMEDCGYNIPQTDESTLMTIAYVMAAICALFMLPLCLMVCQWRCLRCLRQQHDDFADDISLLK
butyrylcholinesterase (BChE), sequence (P06276 29-602): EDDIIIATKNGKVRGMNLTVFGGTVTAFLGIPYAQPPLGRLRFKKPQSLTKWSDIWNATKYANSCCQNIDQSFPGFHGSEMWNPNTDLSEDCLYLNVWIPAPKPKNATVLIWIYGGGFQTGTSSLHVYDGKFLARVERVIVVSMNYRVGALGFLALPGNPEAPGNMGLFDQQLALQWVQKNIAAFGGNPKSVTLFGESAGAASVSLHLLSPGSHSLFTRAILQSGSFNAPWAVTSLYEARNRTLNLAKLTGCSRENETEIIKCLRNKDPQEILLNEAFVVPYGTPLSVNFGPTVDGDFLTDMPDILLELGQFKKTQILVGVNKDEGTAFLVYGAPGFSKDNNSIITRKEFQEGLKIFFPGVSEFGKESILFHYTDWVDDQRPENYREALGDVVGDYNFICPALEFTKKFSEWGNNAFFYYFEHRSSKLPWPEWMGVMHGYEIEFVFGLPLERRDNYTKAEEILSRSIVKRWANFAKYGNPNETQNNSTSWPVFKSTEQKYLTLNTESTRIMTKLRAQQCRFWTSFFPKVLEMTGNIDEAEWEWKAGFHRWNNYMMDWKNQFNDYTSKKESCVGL
acetylcholinesterase (AChE), sequence (P22303 32-614): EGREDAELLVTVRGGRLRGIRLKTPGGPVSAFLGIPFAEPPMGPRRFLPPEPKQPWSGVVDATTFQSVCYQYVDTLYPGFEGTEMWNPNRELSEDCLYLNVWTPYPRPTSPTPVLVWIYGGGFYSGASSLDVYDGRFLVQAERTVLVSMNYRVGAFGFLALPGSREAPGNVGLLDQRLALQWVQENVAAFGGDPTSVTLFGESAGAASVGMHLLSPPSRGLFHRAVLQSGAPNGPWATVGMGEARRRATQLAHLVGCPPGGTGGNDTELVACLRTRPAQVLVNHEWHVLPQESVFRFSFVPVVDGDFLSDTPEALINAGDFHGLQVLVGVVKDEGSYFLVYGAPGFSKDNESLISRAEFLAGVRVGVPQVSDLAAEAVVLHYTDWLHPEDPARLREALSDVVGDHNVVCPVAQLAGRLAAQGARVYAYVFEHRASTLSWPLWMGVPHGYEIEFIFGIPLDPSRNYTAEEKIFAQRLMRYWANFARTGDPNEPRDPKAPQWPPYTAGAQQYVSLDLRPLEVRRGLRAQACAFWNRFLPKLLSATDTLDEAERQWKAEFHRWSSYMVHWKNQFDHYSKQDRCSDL

Row | Structure (SMILES) | SI BChE/AChE [1] | IC50 [1, 5] [µM] | IC50 [2] [µM] | SI AChE/BChE [3] | IC50 [3, 5] [µM] | Ki [4] [µM]
1 | O=C(/C=C/c1ccc(F)cc1)c1cc(I)c(Br)cc1O [Compound 2j, (E)-1-(4-Bromo-2-hydroxy-5-iodophenyl)-3-(4-fluorophenyl)propenone] | 0.52 | 10.98 ± 0.03 | 4.7 | 1.92 | 5.73 ± 0.05 | 3.04 ± 2.31
2 | COc1ccc(-c2oc3cc(Br)c(I)cc3c(=O)c2O)cc1 [Compound 3l, 7-Bro.mo-3-hydroxy-6-iodo-2-(4-methoxyphenyl)-4H-chromen-4-one] |  |  | 15.74 ± 0.12 |  |  | 1.21 ± 0.66

— paper PMC6321475, “Synthesis and Evaluation of the 4-Substituted 2-Hydroxy-5-Iodochalcones and Their 7-Substituted 6-Iodoflavonol Derivatives for Inhibitory Effect on Cholinesterases and β-Secretase” (International Journal of Molecular Sciences, 2018)
